Source: ChEMBL document CHEMBL1159279, “Mechanism-based antitumor screening of Caribbean marine organisms: isolation and structure determination of novel diterpenoids from the gorgonian Eunicea tourneforti” (1995)

system: Saccharomyces cerevisiae; assay: Antifungal activity against DNA-damage repair genes deficient Saccharomyces cerevisiae RS 321 after 48 hrs by mechanism based bioassay; format: functional

SMILES | IC12 [µg/mL]
CC(=O)OCC(COC(C)=O)=C1C=C[C@]2(C)C/C=C(\C)CC[C@@H]3O[C@@]3(C)CC[C@@H]12 | > 3000
CC(=O)OC/C1=C\C[C@@]2(C)CC(=O)C(=C(C)C)[C@@H]2CC[C@]2(C)O[C@H]2CC1 | 1800
C=C(C)C1C/C=C(\C)CC[C@H](O)[C@@]2(C)CCC=C(CC1)C(=O)O2 (stereo partly specified) | > 3000
CC(=O)O[C@H]1C/C(C)=C/C[C@@]2(C)CC(=O)C(=C(C)C)[C@@H]2CC[C@]2(C)O[C@@H]12 | > 3000
C/C1=C\C[C@@]2(C)C(=O)C=C(C(C)C)[C@@H]2CC[C@]2(C)O[C@H]2CC1 | 2600
CC(C)=C1C(=O)C[C@]2(C)C/C=C(\C)CC[C@@H]3O[C@@]3(C)CC[C@@H]12 | 1500
